# Experiment: gradient 5% acetonitrile 3 min, to 50% in 2 min, to 85% in 15 min, held 3 min, 100 µL/min
# Conditions: column: Zorbax Extend-C18 2.1 x 50 mm; eluents: water / acetonitrile, 0.1% formic acid
# How it was run: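 In both positive and negative ionization mode, a quadrupole time-of-flight mass spectrometer coupled to HPLC analyzed pure standards run in mixtures of ~100 molecules. The Zorbax Extend-C18 column (2.1 × 50 mm, 1.8 μm) was operated at 100 μL/min with water and acetonitrile, each containing 0.1% formic acid. The dead volume was 40 μL and the dwell volume 900 μL. Retention time came from adduct peaks that were computationally picked and individually inspected by hand.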
row,Compound,RP-LC retention time [s]
1,Cc1nc(C(=O)Nc2ccc(N3CCOCC3)cc2)c(C)n1C1CCN(C)CC1,555
2,Cn1nc2c(c1NC(=O)c1cc(C(F)(F)F)cc(C(F)(F)F)c1)CCC2,927
3,O=C(NCC1CCOCC1)Nc1cc(F)cc(F)c1,703
4,COc1ccc(NC(=O)N2CC(N(C(=O)NC(C)C)C3CCOCC3)C2)cc1OC,598
5,O=C(Cn1c(=O)c2cccn2c2ccc(F)cc21)NCCCN1CCCCC1,600
6,COc1ccc(N(Cc2nnc3n2CCCCC3)C(=O)Nc2ccccc2OC)cc1,772
7,Cc1ccc(Nc2c(-c3ccc(C(=O)O)cc3)nc3cnccn23)c(C)c1,928
8,O=S(=O)(c1ccc(Cl)s1)N1CCN(c2ccc(-n3ccnc3)nn2)CC1,593
9,Cc1cccc(-c2ncccc2CNS(=O)(=O)Cc2ccccc2)c1,684
10,COc1ccc(C)cc1NC(=O)N(C)CCc1noc(COc2cccc(C)c2)n1,1020
11,COc1cccc(-n2c(=O)c(C(=O)NC(C)c3ccccc3)c(O)c3cccnc32)c1 (stereo not given),1180
12,COCCNC(=O)c1ccc2c(c1)CCCN2C(=O)c1ccc(Cl)cc1,752
13,CN(C)c1cccc(-c2nc(C3CC(=O)N(c4ccc(F)cc4)C3)no2)c1 (stereo not given),1030
14,CCN(C(=O)C1CCN(S(=O)(=O)c2ccc3c(c2)NC(=O)CO3)CC1)c1ccc(OC)cc1,788
15,O=C(NC1CCCCCC1)C1CCN(C(=O)c2ncn3c2COC(c2ccc(F)cc2)C3)CC1 (stereo not given),846
16,COc1ccc(/C=C/c2nn3c(CCc4ccccc4)nnc3s2)cc1,910
17,CSc1cccc(NC(=O)N2CCC(CC(=O)NCc3cccc(F)c3)CC2)c1,843
18,Cc1ccc(-n2nc(N3CCCC(C(=O)NCc4ccc(F)cc4)C3)ccc2=O)cc1Cl (stereo not given),929
19,CCOC(=O)CNC(=O)N1CCCC1c1ccc(C)cc1 (stereo not given),801
20,CN(C)c1ccc(-c2nc3ccccc3s2)cc1,1130
21,CS(=O)(=O)N1CCCc2cc(C(=O)NCc3cccnc3)ccc21,574
22,COc1cc(NC(=O)C2CCCN(c3ncnc4c3nc3n4CCCCC3)C2)cc(OC)c1OC (stereo not given),720
23,CN1C(=O)c2ccccc2Oc2ccc(C(=O)NCc3ccco3)cc21,788

row,Compound,RP-LC retention time [s]
1,Cc1nc2ccccc2c(=O)n1Cc1noc(Cc2ccc(Br)cc2)n1,917
2,Cc1ccc(N2CCN(c3nccn4c(=O)n(CC(=O)Nc5ccc(F)c(Cl)c5)nc34)CC2)cc1,1040
3,COC(=O)c1c(NCc2cccs2)c2cccc(Cl)c2[nH]c1=O,764
4,Cc1ccc(S(=O)(=O)Nc2ccc(Nc3cc(-n4cccn4)ncn3)cc2)c(C)c1,888
5,CC1(C)C(=O)N(CC(=O)Nc2ccc(F)cc2)c2ccccc21,866
6,CCN(CC)c1nc(-c2cccc(C)c2)nnc1C,719
7,Cc1ccc(-c2csc(NC(=O)CN3CCN(C(=O)C4CCCO4)CC3)n2)cc1 (stereo not given),681
8,CCN1C(=O)c2cccnc2Sc2cc(CNC(=O)c3ccc(OC)cc3OC)ccc21,784
9,O=C(Nc1ccc(CC(=O)N2CCC(O)CC2)cc1)C1CCC1,588
10,CCSc1nnc(-c2nn(C)c3c2CN(S(=O)(=O)c2ccc(OC)cc2)CC3)n1CC,905
11,CCN1C(=O)C(CC(=O)NC(C)C)Sc2ncccc21 (stereo not given),655
12,CC1(C(=O)NCc2ccc(F)c(Cl)c2)Oc2cccnc2NC1=O (stereo not given),730
13,CCCCOC(=O)c1ccc(Nc2ncnc(N)c2[N+](=O)[O-])cc1,930
14,Cc1cccc(OCC(=O)N2CCN(c3cc(C)n4cnnc4n3)CC2)c1,621
15,CC1(C(=O)NCc2ccc(F)cc2)CCCN(C(=O)Nc2cccc(Br)c2)C1 (stereo not given),1030
16,CC(C)n1nc(CNC(=O)c2ccco2)c2ccccc21,788
17,Cc1ccnc(N2CCC(C(=O)NCCCN3CCCCCC3)CC2)n1,556
18,COc1cccc(-c2nc(Cn3cnc4ccccc4c3=O)no2)c1OC,802
19,C=CCN1CC[C@]2(C)c3cc(O)ccc3CC1[C@@H]2C,594
20,Cc1ccc(CN(CC(=O)N2CCNCC2)C(=O)c2sccc2C)cc1,720
21,CN(Cc1ccccc1)C(=O)c1ccc2c(c1)N(Cc1ccccc1)C(=O)CO2,878
22,O=C(NCc1nnnn1C1CCCCC1)c1c(F)cccc1Cl,763
23,Brc1ccc(C(c2nnc(-c3ccccc3)o2)N2CCN(c3ccccn3)CC2)cc1 (stereo not given),800

row,Compound,RP-LC retention time [s]
1,COC(=O)c1cc(S(=O)(=O)N2CCCC2C(=O)Nc2cccc3ccccc23)cn1C (stereo not given),916
2,CCn1ncc(NC(=O)c2ccc(C)cc2)c(N2CCOCC2)c1=O,816
3,Cc1ccc(C(=O)N2CCC3(CCC3N3CCOCC3)CC2)s1 (stereo not given),597
4,CCc1nn2c(CNS(=O)(=O)c3ccccc3)c(-c3ccccc3)nc2s1,901
5,O=S(=O)(c1ccc2c(c1)-c1oncc1CO2)N1CCN(C(c2ccccc2)c2ccccc2)CC1,1130
6,Cc1ccc(Sc2nccnc2N2CCCC(C(=O)Nc3ccc(F)c(C)c3)C2)cc1 (stereo not given),1230
7,CCn1c(N2CCCC(C(=O)NCc3cccc(OC)c3)C2)cc(=O)n(C)c1=O (stereo not given),764
8,CCCc1nc(-c2c(C)cc(C)nc2NC(=O)COc2ccccc2)no1,946
9,CCOC(=O)N1CCN(C(=O)c2cn(C)nc2C)CC1,572
10,Cn1c(=O)c2ccn(CC(=O)N3CCC(C(N)=O)(N4CCCCC4)CC3)c2n(C)c1=O,728
11,O=C(Cn1nc(C(=O)N2CCOCC2)c2ccccc21)N1CCN(c2ccccn2)CC1,594
12,CCOC(=O)c1cc(S(=O)(=O)N2CCCC2C(=O)Nc2cccc3c2CCCC3)cn1C (stereo not given),1060
13,Cc1cc(C)nc(Nc2nc(C(=O)O)cs2)n1,626
14,CC(=O)Nc1nsc(N2CCC(C(=O)NCc3ccc(F)cc3Cl)CC2)n1,863
15,O=C(Cc1coc2ccc3ccccc3c12)NCc1ccco1,818
16,CC(C)CN1CCN(S(=O)(=O)c2ccc(-c3nnc(C(C)C)o3)o2)CC1,652
17,O=c1ccn(-c2ccc(Cl)cc2)nc1-c1nc(-c2ccc(Br)cc2)no1,1080
18,Cc1cc2c(cc1S(=O)(=O)N(C)CC(=O)N1CCN(c3ccccn3)CC1)OC(C)C(=O)N2 (stereo not given),587
19,COc1ccc(-c2noc(Cc3nnc(-c4ccc(C)c(F)c4)o3)n2)cc1,1050
20,Cc1sc(-c2noc(C3CCC3)n2)cc1S(=O)(=O)N1CCC(C(=O)NCC2CCCO2)CC1 (stereo not given),937
21,Cc1cc(C(=O)N2CC3CC(C2)c2cccc(=O)n2C3)c(C)o1 (stereo not given),590
22,O=C(c1ccccc1Br)N1CCc2nc(-c3ccccc3)ncc2C1,963
23,CC(C)c1nnc(-c2ccc(S(=O)(=O)N3CCOCC3)o2)o1,754

row,Compound,RP-LC retention time [s]
1,Cc1nn2c(-n3ccnc3C)c3c(nc2c1-c1ccccc1)CCC3,606
2,O=C(C1CCN(S(=O)(=O)c2cc(-c3noc(C4CC4)n3)cs2)CC1)N1CCc2ccccc2C1,1020
3,CCS(=O)(=O)c1ccc2c(c1)N(Cc1nc(-c3cccc(Br)c3)no1)C(=O)CO2,988
4,Cc1cccc(-c2nc(C)c(CCNC(=O)C(=O)Nc3ccc([N+](=O)[O-])cc3)s2)c1,1020
5,CC(C)c1csc(-c2csc(S(=O)(=O)Nc3ccc(F)c(F)c3)c2)n1,1120
6,CN(C)CCN1C(=O)c2cccc3cc(N)cc(c23)C1=O,626
7,COC(=O)C1=C(C)N(C2CCCC2)C(=O)C1(NC(=O)CCc1ccccc1)C(F)(F)F (stereo not given),1080
8,CCN(CC)S(=O)(=O)c1cc(-c2nnc(-c3ccc(C)cc3)o2)ccc1Cl,1190
9,Cc1nnc(-c2nnc(NCc3ccccc3)c3ccccc23)o1,776
10,Cc1ccc(NC(=O)N2CCCC(Cn3c(C4CC4)nc4cccnc43)C2)cc1 (stereo not given),685
11,CC(C)C(=O)N1CCCCCCN(C)C(=O)[C@@H]2CCC[C@@H]21,760
12,COC(=O)C1=CN(c2cccc(C#N)c2)c2cc(F)ccc2S1(=O)=O,763
13,COc1ccc(NS(=O)(=O)c2cc(-c3[nH]ncc3C(=O)N3CCCCC3)oc2C)cc1,731
14,CCc1ccc(NC(=O)C2CCCN(c3ccc(=O)n(-c4cccc(Cl)c4)n3)C2)cc1 (stereo not given),922
15,Cc1cc(-c2nnc(-c3ccc(F)cc3)o2)c(C)n1CC(=O)NC1CCCCC1,979
16,O=S(=O)(NC1CCCCCC1)c1ccc(-c2nnc(C3CCC3)o2)o1,996
17,O=C(NCc1ccccc1)c1nc2ccccn2c1-c1ccsc1,842
18,CCS(=O)(=O)N1CCOc2ccc(NC(=O)COC)cc2C1,654
19,O=C(CN1C(=O)c2cccnc2Oc2ccccc21)NCCc1c[nH]c2ccccc12,766
20,CCn1c(=O)n(CC(=O)NC(C)C)c(=O)c2cnc(-c3ccccc3)nc21,863
21,Nc1cc(=O)nc(SCC(=O)NC2CCCCC2)n1-c1cccc(C(F)(F)F)c1,649
